As usually defined, the IC50 is the concentration that gives 50% inhibition. Higher therefore signals weaker potency in that assay.

Experiment [1] concerns T1, Butyrylcholine esterase (BChE).
T1 construct: larval lysate (4th instar), native enzyme activity
Nature of the experiment: Ellman assay in larval lysate; Michaelis-Menten and Lineweaver-Burk kinetics. Format: biochemical, Aedes aegypti. (In general: DTNB colorimetry detects thiols as they appear.)

Experiment [2] shares this test system. Kind of experiment: Ellman assay with S-butyrylthiocholine iodide in larval lysate. Type of experiment: biochemical, Aedes aegypti.

Molecules are shown by their SMILES.

As to `COc1cc(/C=C/C(=O)CC(=O)/C=C/c2ccc(O)c(OC)c2)ccc1O` [curcumin], the 50% inhibitory concentration (IC50) in experiment [1] came to 201 µM. As to `CCN(C)C(=O)Oc1cccc([C@H](C)N(C)C)c1` [rivastigmine], half-maximal inhibition in experiment [2] (IC50) was put at 4.97 µM.
